Molecular target: T1, Polyunsaturated fatty acid 5-lipoxygenase (Homo sapiens, UniProt P09917)
T1 sequence (P09917 whole entry): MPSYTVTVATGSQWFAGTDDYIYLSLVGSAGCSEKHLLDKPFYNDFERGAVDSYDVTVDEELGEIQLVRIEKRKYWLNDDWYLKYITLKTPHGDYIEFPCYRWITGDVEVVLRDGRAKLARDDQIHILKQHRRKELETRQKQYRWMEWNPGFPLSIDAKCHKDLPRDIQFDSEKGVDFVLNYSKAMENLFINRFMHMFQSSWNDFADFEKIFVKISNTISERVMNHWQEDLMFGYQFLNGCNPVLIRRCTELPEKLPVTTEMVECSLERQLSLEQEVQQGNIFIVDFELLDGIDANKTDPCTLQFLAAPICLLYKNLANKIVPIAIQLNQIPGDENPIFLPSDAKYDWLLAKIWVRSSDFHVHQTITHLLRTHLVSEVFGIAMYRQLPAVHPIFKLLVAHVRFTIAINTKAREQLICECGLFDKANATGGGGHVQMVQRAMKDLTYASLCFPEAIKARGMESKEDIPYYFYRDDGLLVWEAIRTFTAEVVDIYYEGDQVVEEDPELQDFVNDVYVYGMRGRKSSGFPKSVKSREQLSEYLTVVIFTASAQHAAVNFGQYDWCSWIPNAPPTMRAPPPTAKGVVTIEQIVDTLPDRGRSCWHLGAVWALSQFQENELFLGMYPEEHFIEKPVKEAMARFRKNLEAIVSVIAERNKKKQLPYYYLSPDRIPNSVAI
Test: Inhibition of LT biosynthesis in vitro using A-23187-stimulated human whole blood.
Type: functional, tissue-based

Row | Compound | IC50 [nM]
1 | CC1(C)OCC(C)(c2cccc(OCc3ccc4ccccc4c3)c2)O1 (stereo unspecified) | 350
2 | CN(c1ccc(Sc2cc(C3(C)COC(C)(C)O3)cs2)cc1)S(C)(=O)=O (stereo unspecified) | 160
3 | CC(=O)c1ccc(Sc2cc(C3(C)COC(C)(C)O3)cs2)cc1 (stereo unspecified) | 600
4 | CN(C)S(=O)(=O)c1ccc(Sc2cc(C3(C)COC(C)(C)O3)cs2)cc1 (stereo unspecified) | 210
5 | CC(=O)N(C)c1ccc(Sc2cc([C@]3(C)COC(C)(C)O3)cs2)cc1 | 1180
6 | C/C(=N\O)c1ccc(S(=O)(=O)c2cc([C@@]3(C)COC(C)(C)O3)cs2)cc1 | 90
7 | CC(=O)c1ccc(Sc2ncc([C@@]3(C)COC(C)(C)O3)s2)cc1 | 390
8 | COC1(c2cc(S(=O)(=O)c3ccc4c(ccc(=O)n4C)c3)ccc2C)CCOCC1 | 40
9 | COC1(c2cc(Sc3ccc4c(c3)CCC(=O)N4C)cc(F)c2C)CCOCC1 | 60
10 | C/C(=N\O)c1ccc(Sc2cc([C@@]3(C)COC(C)(C)O3)cs2)cc1 | 40
11 | C/C(=N\OCCN1CCOCC1)c1ccc(Sc2cc([C@@]3(C)COC(C)(C)O3)cs2)cc1 | 1510
12 | C/C(=N\OCC#N)c1ccc(S(=O)(=O)c2ncc([C@@]3(C)COC(C)(C)O3)s2)cc1 | 120
13 | COC1(c2cc(Sc3ccc(N(C)C(C)=O)cc3)cc(F)c2C)CCOCC1 | 30
14 | CC(=O)N(C)c1ccc(S(=O)(=O)c2cc(C3(C)COC(C)(C)O3)cs2)cc1 (stereo unspecified) | 840
15 | C/C(=N\OCC#N)c1ccc(Sc2ncc([C@@]3(C)COC(C)(C)O3)s2)cc1 | 30

Now from value to compound:

Row | IC50 [nM] | Compound
16 | 20 | COC1(c2cc(Sc3ccc(/C(C)=N/O)cc3)cc(F)c2C)CCOCC1
17 | 270 | CO/N=C(\C)c1ccc(Sc2cc(C3(C)COC(C)(C)O3)cs2)cc1 (stereo unspecified)
18 | 40 | C/C(=N\O)c1ccc(Sc2cc(C3(C)COC(C)(C)O3)cs2)cc1 (stereo unspecified)
19 | 100 | CN1C(=O)CCc2ccc(Sc3cc(C4(C)COC(C)(C)O4)cs3)cc21 (stereo unspecified)
20 | 20 | COC1(c2cc(OCc3ccc4c(ccc(=O)n4C)c3)cc(F)c2C)CCOCC1
21 | 150 | CC(=O)N(C)c1ccc(Sc2cc(C3(C)COC(C)(C)O3)cs2)cc1 (stereo unspecified)
22 | 50 | C/C(=N\OCC#N)c1ccc(S(=O)(=O)c2cc([C@@]3(C)COC(C)(C)O3)cs2)cc1
23 | 200 | C/C(=N\O)c1ccc(S(=O)(=O)c2ncc([C@@]3(C)COC(C)(C)O3)s2)cc1
24 | 40 | COC1(c2cc(Sc3ccc4c(c3)OCC(=O)N4C)cc(F)c2C)CCOCC1
25 | 10 | C/C(=N\OCC#N)c1ccc(Sc2cc([C@@]3(C)COC(C)(C)O3)cs2)cc1
26 | 40 | CC(=O)N(C)c1ccc(Sc2cc([C@@]3(C)COC(C)(C)O3)cs2)cc1
27 | 140 | COC1(c2sc(Sc3ccc4c(c3)CCC(=O)N4C)nc2C)CCOCC1
28 | 40 | CN1C(=O)COc2ccc(Sc3cc(C4(C)COC(C)(C)O4)cs3)cc21 (stereo unspecified)
29 | 6210 | CC(=O)N(C)c1ccc(Sc2ncc([C@]3(C)COC(C)(C)O3)s2)cc1
30 | 20 | COC1(c2cc(Sc3ccc4c(c3)CCC(=O)N4C)sc2C)CCOCC1
31 | 130 | C/C(=N\O)c1ccc(Sc2ncc([C@@]3(C)COC(C)(C)O3)s2)cc1

Reference: ChEMBL document CHEMBL1128582, “Chiral dioxolane inhibitors of leukotriene biosynthesis: structure-activity relationships and syntheses using asymmetric dihydroxylation” (J Med Chem, 1995)
